This is an account of results in BindingDB's records for doi:10.1021/jm960697s (Pfizer, 1997).

Assay [1] addresses T1, 3-oxo-5-alpha-steroid 4-dehydrogenase 1 (Homo sapiens, UniProt P18405).
T1 sequence (P18405 whole entry): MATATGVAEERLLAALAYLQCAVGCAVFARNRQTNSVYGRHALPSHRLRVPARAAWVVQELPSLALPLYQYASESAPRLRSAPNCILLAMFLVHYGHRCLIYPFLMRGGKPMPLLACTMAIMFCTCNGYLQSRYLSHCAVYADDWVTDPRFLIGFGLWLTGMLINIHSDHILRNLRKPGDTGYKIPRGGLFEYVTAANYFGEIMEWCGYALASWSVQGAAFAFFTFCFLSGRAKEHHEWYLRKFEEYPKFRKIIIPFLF
Kind of assay: Binding affinity for human 5 alpha reductase 1 isozyme.

For assay [2], the target named is Alpha-1B adrenergic receptor (Mesocricetus auratus) (UniProt P18841). Kind of assay: Binding affinity was tested on cloned hamster Alpha-1B adrenergic receptor.
Sequence of Alpha-1B adrenergic receptor (Mesocricetus auratus) (P18841 whole entry, looked up): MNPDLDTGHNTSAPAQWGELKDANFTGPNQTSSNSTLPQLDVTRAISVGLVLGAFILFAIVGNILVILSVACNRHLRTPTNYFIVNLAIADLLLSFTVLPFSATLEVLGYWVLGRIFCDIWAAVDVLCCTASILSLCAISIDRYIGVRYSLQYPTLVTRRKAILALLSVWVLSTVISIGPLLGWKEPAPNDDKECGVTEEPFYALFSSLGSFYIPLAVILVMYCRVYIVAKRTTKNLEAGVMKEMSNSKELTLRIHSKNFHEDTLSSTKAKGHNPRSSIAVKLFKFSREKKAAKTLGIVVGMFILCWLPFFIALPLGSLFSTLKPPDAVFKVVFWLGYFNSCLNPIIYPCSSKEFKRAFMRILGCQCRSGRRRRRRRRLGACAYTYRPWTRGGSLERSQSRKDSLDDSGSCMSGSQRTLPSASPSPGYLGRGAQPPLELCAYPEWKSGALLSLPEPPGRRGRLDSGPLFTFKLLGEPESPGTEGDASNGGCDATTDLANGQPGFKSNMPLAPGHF

Turning to `C[C@]12CCC(=O)C(Cl)C1=NCC1C2CC[C@@]2(C)C1CC[C@@H]2C(=O)Nc1cc(C(F)(F)F)ccc1C(F)(F)F` (stereo partly drawn) [(1S,9aR,11aS)-6-Chloro-9a,11a-dimethyl-7-oxo-2,3,3a,3b,4,5,7,8,9,9a,9b,10,11,11a-tetradecahydro-1H-cyclopenta[i]phenanthridine-1-carboxylic acid (2,5-bis-trifluoromethyl-phenyl)-amide], affinity in assay [1] was put at a Ki of 0.2 nM.

On to `CC1C(=O)CC[C@@]2(C)C1=NCC1C2CC[C@@]2(C)C1CC[C@@H]2C(=O)Nc1cc(C(F)(F)F)ccc1C(F)(F)F` (stereo partly drawn) [(1S,9aR,11aS)-6,9a,11a-Trimethyl-7-oxo-2,3,3a,3b,4,5,7,8,9,9a,9b,10,11,11a-tetradecahydro-1H-cyclopenta[i]phenanthridine-1-carboxylic acid (2,5-bis-trifluoromethyl-phenyl)-amide], for which the Ki in assay [1] is 0.2 nM.

In turn, `COc1ccc(CC2c3cc(OC)c(OC)cc3CCN2c2nc(N)c3cc(OC)c(OC)cc3n2)cc1OC` (stereo not drawn) [2-[1-(3,4-Dimethoxy-benzyl)-6,7-dimethoxy-3,4-dihydro-1H-isoquinolin-2-yl]-6,7-dimethoxy-quinazolin-4-ylamine] gave an IC50 in assay [2] of 206 nM.

Usually Ki stands for a measure of affinity in units of concentration, obtained from inhibition or displacement. Read a high Ki as lower affinity. One may read the IC50 as the midpoint of a concentration-inhibition curve.
